Measurements as given in patent US20240245786A1, “SMALL MOLECULE DEGRADERS OF PHOSPHATIDYLINOSITOL-5-PHOSPHATE 4-KINASE TYPE 2 AND USES THEREOF” (DANA-FARBER CANCER INSTITUTE, INC., priority 2020, published 2024).

Legend:
[1] = target: T1, PIP4K2A (Homo sapiens, UniProt P48426); experiment: IC50 for bifunctional compound 1, PIP4K2A (biochemical binding affinity)
T1 sequence (P48426 1-406): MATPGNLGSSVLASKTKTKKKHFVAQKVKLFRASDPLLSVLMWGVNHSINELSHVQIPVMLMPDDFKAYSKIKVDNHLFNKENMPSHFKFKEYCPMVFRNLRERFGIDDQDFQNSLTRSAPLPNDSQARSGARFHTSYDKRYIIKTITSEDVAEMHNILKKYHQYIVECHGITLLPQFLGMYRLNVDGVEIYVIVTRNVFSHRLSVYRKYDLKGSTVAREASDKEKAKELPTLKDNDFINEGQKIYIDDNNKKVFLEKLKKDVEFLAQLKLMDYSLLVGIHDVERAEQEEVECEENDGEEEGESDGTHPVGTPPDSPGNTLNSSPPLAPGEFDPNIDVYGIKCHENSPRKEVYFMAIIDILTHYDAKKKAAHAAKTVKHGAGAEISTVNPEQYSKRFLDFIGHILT

[2] = target: T2, PIP4K2B (Homo sapiens, UniProt P78356); experiment: IC50 for bifunctional compound 1, PIP4K2B (biochemical binding affinity)
T2 sequence (P78356 1-416): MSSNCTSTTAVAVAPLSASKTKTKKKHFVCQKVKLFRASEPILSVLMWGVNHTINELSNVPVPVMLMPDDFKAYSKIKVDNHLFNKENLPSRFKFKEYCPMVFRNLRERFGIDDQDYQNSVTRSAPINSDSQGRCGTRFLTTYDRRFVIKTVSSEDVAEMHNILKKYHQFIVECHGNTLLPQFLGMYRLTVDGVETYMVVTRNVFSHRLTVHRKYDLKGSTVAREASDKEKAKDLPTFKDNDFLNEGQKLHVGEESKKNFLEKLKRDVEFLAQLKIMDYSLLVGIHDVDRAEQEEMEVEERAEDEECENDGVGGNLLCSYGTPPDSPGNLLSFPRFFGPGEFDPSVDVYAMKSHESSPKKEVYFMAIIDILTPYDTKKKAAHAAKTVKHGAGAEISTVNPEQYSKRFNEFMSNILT

[3] = target: T3, ETS2 Repressor Factor (ERF) (Homo sapiens, UniProt P50548); experiment: Proteomics analysis (TMT LC-MS3) of Molt4 cells, ERF; details: 1 μM, 5 h
T3 sequence (P50548 1-548): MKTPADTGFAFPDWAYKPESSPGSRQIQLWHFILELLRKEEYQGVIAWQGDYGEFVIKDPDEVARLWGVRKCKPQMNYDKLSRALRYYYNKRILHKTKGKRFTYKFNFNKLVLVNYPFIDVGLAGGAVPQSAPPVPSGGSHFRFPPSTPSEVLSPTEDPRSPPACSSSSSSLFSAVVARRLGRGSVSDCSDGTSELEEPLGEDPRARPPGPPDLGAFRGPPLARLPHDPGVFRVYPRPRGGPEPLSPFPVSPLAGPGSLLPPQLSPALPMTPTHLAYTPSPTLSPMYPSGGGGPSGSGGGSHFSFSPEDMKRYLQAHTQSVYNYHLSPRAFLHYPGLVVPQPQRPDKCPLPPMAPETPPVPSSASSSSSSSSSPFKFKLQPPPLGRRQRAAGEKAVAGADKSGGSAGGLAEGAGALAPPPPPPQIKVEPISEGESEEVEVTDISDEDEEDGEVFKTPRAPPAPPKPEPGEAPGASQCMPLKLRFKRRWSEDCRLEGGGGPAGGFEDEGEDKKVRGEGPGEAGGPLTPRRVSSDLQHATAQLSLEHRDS
Method: (§1) Molt4 cells were treated with DMSO or the indicated compound for 5 h, and cells were harvested by centrifugation. […] The homogenized sample was clarified by centrifugation at 20,000×g for 10 min at 4° C. A micro-BCA assay (Pierce™) was used to determine the final protein concentration in the cell lysate. […] Proteins were precipitated using methanol/chloroform. In brief, four volumes of methanol were added to the cell lysate, followed by one volume of chloroform, and finally three volumes of water. The mixture was vortexed and centrifuged at 14,000×g for 5 min to separate the chloroform phase from the aqueous phase. […] The sample channels were combined in a 1:1:1:1:1:1:1:1:1:1 ratio, desalted using C18 solid phase extraction cartridges (Waters®) and analyzed by liquid chromatography-mass spectrometry (LC-MS) for channel ratio comparison. Samples were then combined using the adjusted volumes determined in the channel ratio analysis and dried down in a speed vacuum. […]
(§2) Proteome Discoverer™ 2.2 (Thermo Fisher) was used for RAW file processing and controlling peptide and protein level false discovery rates, assembling proteins from peptides, and protein quantification from peptides. […] TMT reporter ion intensities were measured using a 0.003 Da window around the theoretical m z for each reporter ion in the MS3 scan. […]

[4] = target: T1, PIP4K2A; experiment: Proteomics analysis (TMT LC-MS3) of Molt4 cells, PIP4K2A abundance; details: 1 μM, 5 h
Method: as §1, §2

[5] = target: T2, PIP4K2B; experiment: Proteomics analysis (TMT LC-MS3) of Molt4 cells, PIP4K2B abundance; details: 1 μM, 5 h
Method: as §1, §2

[6] = target: T3, ETS2 Repressor Factor (ERF); experiment: Immunoblot of ERF degradation in Molt4 cells (FIG. 1D); assay type: cell-based; parameters: immunoblot of PIP4K2A, PIP4K2B, PIP4K2C, and ERF degradation in Molt4 cells; endogenous in cells; host or cells: Molt4; details: 6 h or 8 h
Method: Molt4 cells were treated with the indicated compounds for the indicated time in FIG. 1A-FIG. 1F and FIG. 3A-FIG. 3B. Cells were lysed in M-PER™ buffer (Thermo Scientific) containing protease/phosphatase inhibitor cocktail (Roche®). Protein concentration was measured using a bicinchoninic acid (BCA) assay (Pierce™). Equivalent amounts of each sample were loaded on 4-12% Bis-Tris gels (Invitrogen™), transferred to nitrocellulose membranes, and immunoblotted with antibodies against the indicated proteins. IRDye®800-labeled goat anti-rabbit IgG and IRDye®680-labeled goat anti-mouse IgG (LI-COR®) secondary antibodies were purchased for LI-COR®, and membranes were detected on an Odyssey® detection system (LI-COR® Biosciences).

IC50 [1]: > 10 µM
IC50 [2]: 14 µM
change in abundance of PIP4K2A (proteomics) [4]: no detectable change in abundance
change in abundance of PIP4K2B (proteomics) [5]: no detectable change in abundance
ERF degradation, as seen in FIG. 1D [6]: scored as a potential degraded protein
SMILES: Cc1ncsc1-c1ccc([C@H](C)NC(=O)C2C[C@@H](O)CN2C(=O)[C@@H](NC(=O)CCCCC(=O)Nc2ccc(C(=O)Nc3cccc(Nc4cc(-c5c[nH]c6ccccc56)ncn4)c3)cc2)C(C)(C)C)cc1 (stereo partly drawn) [Compound 1, N1-(4-((3-((6-(1H-indol-3-yl)pyrimidin-4-yl)amino)phenyl)carbamoyl)phenyl)-N6-((2S)-1-((4R)-4-hydroxy-2-(((S)-1-(4-(4-methylthiazol-5-yl)phenyl)ethyl)carbamoyl)pyrrolidin-1-yl)-3,3-dimethyl-1-oxobutan-2-yl)adipamide]
ERF degradation, validation by proteomics analysis [3]: not validated as a confirmed degraded protein
